From US9555024B2, “Substituted (E)-N′-(1-phenylethylidene)benzohydrazide analogs as histone demethylase inhibitors” (University of Utah Research Foundation, priority 2011, dated 2017)

Assays:
MAO B = MAO B (Homo sapiens (Human), UniProt P27338); assay: Monoamine Oxidase assay (MAO-Glo Assay Kit); conditions: result in words
MAO A = MAO A (Homo sapiens (Human), UniProt P21397); assay: Monoamine Oxidase assay (MAO-Glo Assay Kit); conditions: result in words
Description: Recombinant (expressed in baculovirus infected BTI insect cells) monoamine oxidase A and monoamine oxidase B (Catalog No. M7316 and M7441, respectively) were purchased from Sigma-Aldrich Co. LLC. […] MAO-Glo™ Assay Kit was purchased from Promega Corporation (Madison, Wis.).
Briefly, 6.25 μL of test compound was added to each well of a 384-well plate. Enzyme (either MAO A or B) was added (12.5 μL in 2× buffer containing 1 μg protein) and allowed to incubate for 5 minutes. Finally, 6.25 μL of 4×MAO substrate was added to each well. Following a one hour incubation, 25 μL of Luciferin detection reagent was added to each well, and incubated for 20 minutes. Luminescence was then measured on an Envision microplate reader.
(§1) IC50 values are determined using GraphPad Prism 5 software. The data were entered as an X-Y plot into the software as percent inhibition for each concentration of the drug. The concentration values of the drug were log transformed and the nonlinear regression was carried out using the “sigmoidal dose-response (variable slope)” option within the GraphPad software to model the data and calculate IC50 values.

heme oxygenase (HMOX) = assay: Real-Time PCR of heme oxygenase (HMOX) expression in T-47D cells; format: cell-based, human; conditions: normalized to HPRT and β-actin
Description: Briefly, T-47D cells were seeded in 96-well plates and treated with concentrations of inhibitors as indicated. Cell lysates, Reverse transcription, and single color syber green realtime PCR was performed using the Cells-to-Ct kit (Life Technologies). Transcript levels of heme oxygenase (HMOX) were normalized to hypoxanthine phosphoribosyltransferase (HPRT) and β-actin.

T-47D cells = assay: Cell Viability Assay (ATPlite); format: cell-based; conditions: Homo sapiens, T47D, 96-hours of incubation, read-out: Cell Growth, IC50
Description: Cells were cultured according to the procedures provided. […] Cells were cultured at 37° C. and 5% CO2.
Cell viability was determined using ATPlite™ Luminescence Assay System (PerkinElmer Inc., Waltham, Mass.) using the various cell-lines described above and in Table 4. Briefly, cells were seeded in 96-well plates and then treated with different concentrations of inhibitor (0.1% final DMSO concentration). After 96-hours of incubation, ATPlite detection reagent was added directly to the culture well. Luminescence was read 5 minutes later on an Envision microplate reader.
as §1

Chain of MAO B (P27338 whole entry): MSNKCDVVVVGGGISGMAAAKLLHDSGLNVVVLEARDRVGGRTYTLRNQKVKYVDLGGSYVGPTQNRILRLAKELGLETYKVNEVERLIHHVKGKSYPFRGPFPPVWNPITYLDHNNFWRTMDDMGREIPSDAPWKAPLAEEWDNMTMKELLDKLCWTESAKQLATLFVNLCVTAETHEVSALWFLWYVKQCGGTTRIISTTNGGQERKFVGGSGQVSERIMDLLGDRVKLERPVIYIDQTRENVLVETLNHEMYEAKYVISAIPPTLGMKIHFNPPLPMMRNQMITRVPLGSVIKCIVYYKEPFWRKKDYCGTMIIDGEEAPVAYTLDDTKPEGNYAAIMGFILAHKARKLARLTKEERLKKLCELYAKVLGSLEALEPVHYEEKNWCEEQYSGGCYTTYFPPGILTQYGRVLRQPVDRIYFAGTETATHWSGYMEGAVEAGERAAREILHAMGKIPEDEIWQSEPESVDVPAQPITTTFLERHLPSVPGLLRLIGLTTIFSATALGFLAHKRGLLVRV
Chain of MAO A (P21397 whole entry): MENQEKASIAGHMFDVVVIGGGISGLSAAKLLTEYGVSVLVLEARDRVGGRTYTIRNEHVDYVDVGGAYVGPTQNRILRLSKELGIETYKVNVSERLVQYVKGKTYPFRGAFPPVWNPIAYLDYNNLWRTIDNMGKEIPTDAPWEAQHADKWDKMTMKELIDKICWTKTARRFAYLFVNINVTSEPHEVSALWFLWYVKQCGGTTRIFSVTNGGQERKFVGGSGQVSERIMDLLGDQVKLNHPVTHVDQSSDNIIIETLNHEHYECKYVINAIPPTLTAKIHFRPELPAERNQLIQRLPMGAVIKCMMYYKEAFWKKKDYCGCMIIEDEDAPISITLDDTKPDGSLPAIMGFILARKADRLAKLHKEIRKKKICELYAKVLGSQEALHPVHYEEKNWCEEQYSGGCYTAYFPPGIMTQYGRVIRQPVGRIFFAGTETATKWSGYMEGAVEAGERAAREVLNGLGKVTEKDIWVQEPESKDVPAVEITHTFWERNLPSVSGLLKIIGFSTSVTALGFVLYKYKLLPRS

Row | Compound | activity against MAO B (MAO B) | activity against MAO A (MAO A) | HMOX expression (fold-induction) (heme oxygenase (HMOX)) | IC50 (T-47D cells)
1 | N[C@@H]1CC1c1ccccc1 (some centres unmarked) [tranylcypromine, reference compound] | exhibited activity | exhibited activity |  | 
2 | C/C(=N\NC(=O)c1ccccc1)c1c(O)cccc1O [Compound 14] |  |  | 1.1 fold-induction | > 10 µM
3 | O=C(N/N=C/c1ccccc1O)c1ccc(O)cc1 [Compound 1] | comparable activity to tranylcypromine |  |  | 
